ChEMBL document CHEMBL3217476, “Binding region and interaction properties of sulfoquinovosylacylglycerol (SQAG) with human vascular endothelial growth factor 165 revealed by biosensor-based assays” (Medchemcomm, 2011)
Each block holds one compound with its values, some of them ahead of it. Active and inactive are the calls of the source. The rule behind the calls is not given here.

Columns and labels:
[1] = target: T1, Vascular endothelial growth factor A, long form (Homo sapiens) (UniProt P15692); assay: Binding affinity to His-tagged human recombinant full length VEGF165 (amino acid residues A1 to R165) expressed in Escherichia coli BL21 (DE3) cells at 0.125 to 2 uM by surface plasmon resonance assay
T1 sequence (whole entry): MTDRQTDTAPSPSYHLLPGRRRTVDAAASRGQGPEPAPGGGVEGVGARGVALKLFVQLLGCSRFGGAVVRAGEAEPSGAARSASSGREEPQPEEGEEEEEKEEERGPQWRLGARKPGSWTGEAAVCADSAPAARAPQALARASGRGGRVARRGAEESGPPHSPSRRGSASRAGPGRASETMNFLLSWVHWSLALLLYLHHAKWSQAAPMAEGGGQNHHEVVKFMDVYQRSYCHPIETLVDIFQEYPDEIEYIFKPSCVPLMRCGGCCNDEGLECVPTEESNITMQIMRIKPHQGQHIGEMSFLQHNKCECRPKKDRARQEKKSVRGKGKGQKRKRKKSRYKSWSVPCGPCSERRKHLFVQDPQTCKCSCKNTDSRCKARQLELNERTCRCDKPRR

[2] = target: T2, Vascular endothelial growth factor A, long form (Homo sapiens, UniProt P15692); assay: Binding affinity to His-tagged human recombinant full length VEGF165 (amino acid residues A1 to R165) expressed in Escherichia coli BL21 (DE3) cells by surface plasmon resonance assay
T2 sequence (P15692 whole entry): T1 sequence (whole entry)

[3] = test system: Vascular endothelial growth factor A, long form (Homo sapiens), P15692 [UNDEFINED MUTATION]; assay: Binding affinity to His-tagged human recombinant truncated del1 VEGF165 (amino acid residues A1 to R110) expressed in Escherichia coli BL21 (DE3) cells at 0.125 to 2 uM by surface plasmon resonance assay
[4] = target: Vascular endothelial growth factor A, long form (Homo sapiens, UniProt P15692, EX2DEL); assay: Binding affinity to His-tagged human recombinant truncated del2 VEGF165 (amino acid residues A111 to R165) expressed in Escherichia coli BL21 (DE3) cells by surface plasmon resonance assay
[5] = test system: Vascular endothelial growth factor A, long form (Homo sapiens), P15692 [UNDEFINED MUTATION]; assay: Binding affinity to His-tagged human recombinant truncated del3 VEGF165 (amino acid residues A111 to T142) expressed in Escherichia coli BL21 (DE3) cells at 0.125 to 2 uM by surface plasmon resonance assay
[6] = target: Vascular endothelial growth factor A, long form (Homo sapiens, UniProt P15692, EX4DEL); assay: Binding affinity to His-tagged human recombinant truncated del4 VEGF165 (amino acid residues C137 to R165) expressed in Escherichia coli BL21 (DE3) cells by surface plasmon resonance assay
[7] = target: T1, Vascular endothelial growth factor A, long form (Homo sapiens); assay: Inhibition of human VEGF165 heparin binding domain (amino acid residues A111 to R165) expressed in T7 phage/NRP1 interaction assessed as rescued phage titer ratio of del2 T7 phage particles at 1 uM preincubated with del2 T7 phage particles by QCM sensorgram analysis
[8] = target: T1, Vascular endothelial growth factor A, long form (Homo sapiens); assay: Binding affinity to human VEGF121 (amino acid residues A1 to R121) at 0.125 to 2 uM by surface plasmon resonance assay
[9] = target: Vascular endothelial growth factor receptor 1 (Homo sapiens) (UniProt P17948); assay: Binding affinity to human VEGFR1 (amino acid residues S27 to I328) at 0.125 to 2 uM by surface plasmon resonance assay
[10] = target: Vascular endothelial growth factor receptor 2 (Homo sapiens) (UniProt P35968); assay: Binding affinity to human VEGFR2 (amino acid residues A20 to E764) at 0.125 to 2 uM by surface plasmon resonance assay
[11] = target: Neuropilin-1 (Homo sapiens) (UniProt O14786); assay: Binding affinity to human NRP1 (amino acid residues M1 to K644) at 0.125 to 2 uM by surface plasmon resonance assay
[12] = target: Transforming growth factor beta-2 proprotein (Homo sapiens) (UniProt P61812); assay: Binding affinity to human TGFbeta2 (amino acid residues A1 to S112) at 0.125 to 2 uM by surface plasmon resonance assay
[13] = target: TGF-beta receptor type-2 (Homo sapiens) (UniProt P37173); assay: Binding affinity to human TGFbetaR2 (amino acid residues M1 to D159) at 0.125 to 2 uM by surface plasmon resonance assay
[14] = target: Insulin-like growth factor 1 (Homo sapiens) (UniProt P05019); assay: Binding affinity to human IGF-1 (amino acid residues G49 to A118) at 0.125 to 2 uM by surface plasmon resonance assay
[15] = target: Insulin-like growth factor 1 receptor (Homo sapiens) (UniProt P08069); assay: Binding affinity to human IGF-1 receptor (amino acid residues E31 to N932) at 0.125 to 2 uM by surface plasmon resonance assay
[16] = target: Fibroblast growth factor 1 (Homo sapiens) (UniProt P05230); assay: Binding affinity to human FGF1 (amino acid residues M1 to D141) at 0.125 to 2 uM by surface plasmon resonance assay
[17] = target: Fibroblast growth factor 2 (Homo sapiens) (UniProt P09038); assay: Binding affinity to human FGF2 (amino acid residues A1 to S154) at 0.125 to 2 uM by surface plasmon resonance assay
Homo sapiens [18] = organism: Homo sapiens; assay: Binding affinity to human FGFR2 alpha (amino acid residues R22 to E378) at 0.125 to 2 uM by surface plasmon resonance assay
[19] = target: Angiopoietin-1 (Homo sapiens) (UniProt Q15389); assay: Binding affinity to human Ang-1 (amino acid residues N21 to F496) at 0.125 to 2 uM by surface plasmon resonance assay
[20] = target: Angiopoietin-1 receptor (Homo sapiens) (UniProt Q02763); assay: Binding affinity to human Tie-2 (amino acid residues A23 to K745) at 0.125 to 2 uM by surface plasmon resonance assay
[21] = target: Ephrin type-B receptor 2 (Homo sapiens) (UniProt P29323); assay: Binding affinity to human EphB2 (amino acid residues V27 to K458) at 0.125 to 2 uM by surface plasmon resonance assay
[22] = target: Ephrin type-B receptor 4 (Homo sapiens) (UniProt P54760); assay: Binding affinity to human EphB4 (amino acid residues L16 to A539) at 0.125 to 2 uM by surface plasmon resonance assay
[23] = target: Pro-epidermal growth factor (Homo sapiens) (UniProt P01133); assay: Binding affinity to human EGF (amino acid residues N1 to R53) at 0.125 to 2 uM by surface plasmon resonance assay
[24] = target: Epidermal growth factor receptor (Homo sapiens) (UniProt P00533); assay: Binding affinity to human EGFR (amino acid residues L25 to S645) at 0.125 to 2 uM by surface plasmon resonance assay
Homo sapiens [25] = organism: Homo sapiens; assay: Binding affinity to human PDGF-BB (amino acid residues S1 to T110) at 0.125 to 2 uM by surface plasmon resonance assay
[26] = target: Platelet-derived growth factor receptor beta (Mus musculus) (UniProt P05622); assay: Binding affinity to GST-fused mouse PDGFRB (amino acid residues L33 to E133) at 0.125 to 2 uM by surface plasmon resonance assay
[27] = target: Bone morphogenetic protein 2 (Homo sapiens) (UniProt P12643); assay: Binding affinity to human BMP-2 (amino acid residues M1 to R115) at 0.125 to 2 uM by surface plasmon resonance assay
[28] = target: Bone morphogenetic protein receptor type-2 (Homo sapiens) (UniProt Q13873); assay: Binding affinity to human BMPR2 (amino acid residues A26 to I151) at 0.125 to 2 uM by surface plasmon resonance assay
Homo sapiens [29] = organism: Homo sapiens; assay: Binding affinity to human sDLL-4 (amino acid residues S1 to P498) at 0.125 to 2 uM by surface plasmon resonance assay
[30] = target: Protein jagged-1 (Homo sapiens) (UniProt P78504); assay: Binding affinity to human Jagged-1 (amino acid residues S32 to S1046) at 0.125 to 2 uM by surface plasmon resonance assay
[31] = target: Neurogenic locus notch homolog protein 1 (Homo sapiens) (UniProt P46531); assay: Binding affinity to human Notch-1 (amino acid residues A19 to Q526) at 0.125 to 2 uM by surface plasmon resonance assay
[32] = target: T1, Vascular endothelial growth factor A, long form (Homo sapiens); assay: Binding affinity to human VEGF165 heparin binding domain (amino acid residues A111 to R165) expressed in T7 phage assessed as increase in emergence ratio of del2 T7 phage particles from host Escherichia coli BLT5615 cells by QCM sensorgram analysis; format: cell-based
[33] = target: T1, Vascular endothelial growth factor A, long form (Homo sapiens); assay: Binding affinity to human VEGF165 C-terminal fragment of heparin binding domain (amino acid residues C137 to R165) expressed in T7 phage assessed as increase in emergence ratio of del4 T7 phage particles from host Escherichia coli BLT5615 cells by QCM sensorgram analysis; format: cell-based
[34] = target: DNA polymerase lambda (Homo sapiens) (UniProt Q9UGP5); assay: Binding affinity to human DNA polymerase lambda (amino acid residues M1 to R95) by surface plasmon resonance assay
[35] = target: T1, Vascular endothelial growth factor A, long form (Homo sapiens); assay: Inhibition of human VEGF165 heparin binding domain (amino acid residues A111 to R165) expressed in T7 phage/NRP1 interaction assessed as rescued phage titer ratio of del2 T7 phage particles at 10 uM preincubated with del2 T7 phage particles by QCM sensorgram analysis
[36] = target: T1, Vascular endothelial growth factor A, long form (Homo sapiens); assay: Binding affinity to His-tagged human recombinant full length VEGF165 (amino acid residues A1 to R165) expressed in Escherichia coli BL21 (DE3) cells at 1.25 to 20 uM by surface plasmon resonance assay

Activity [1]: inactive
Structure (SMILES): CCCCCCCCCCCCCCCCCC(=O)OCC(CO[C@@H]1O[C@H](CO)[C@@H](O)[C@H](O)[C@H]1O)OC(=O)CCCCCCCCCCCCCCCCC (stereo not given in full)

Kd [2]: 2.5e-05 µM
Structure (SMILES): CCCCCCCCCCCCCCCCCC(=O)OCC(CO[C@H]1O[C@H](CS(=O)(=O)O)[C@@H](O)[C@H](O)[C@H]1O)OC(=O)CCCCCCCCCCCCCCCCC (stereo not given in full)

Activity [1]: inactive
Structure (SMILES): O=S(=O)(O)C[C@H]1O[C@@H](OCC(O)CO)[C@H](O)[C@@H](O)[C@@H]1O (stereo not given in full)

Activity [3]: inactive
Kd [4]: 0.025 nM
Activity [5]: inactive
Kd [6]: 1400 nM
inhibition [7]: Active
Kd [2]: 4.6e-05 µM
Activity [8]: inactive
Activity [9]: inactive
Activity [10]: inactive
Activity [11]: inactive
Activity [12]: inactive
Activity [13]: inactive
Activity [14]: inactive
Activity [15]: inactive
Activity [16]: inactive
Activity [17]: inactive
Activity (Homo sapiens [18]): inactive
Activity [19]: inactive
Activity [20]: inactive
Activity [21]: inactive
Activity [22]: inactive
Activity [23]: inactive
Activity [24]: inactive
Activity (Homo sapiens [25]): inactive
Activity [26]: inactive
Activity [27]: inactive
Activity [28]: inactive
Activity (Homo sapiens [29]): inactive
Activity [30]: inactive
Activity [31]: inactive
Activity [32]: Active
Activity [33]: Active
Kd [34]: 9.9 nM
Structure (SMILES): CCCCCCCCCCCCCCCCCC(=O)OCC(CO[C@@H]1O[C@H](CS(=O)(=O)O)[C@@H](O)[C@H](O)[C@H]1O)OC(=O)CCCCCCCCCCCCCCCCC (stereo not given in full)

Kd [2]: 16 µM
Structure (SMILES): CCCCCCCCCCCCCCCCCC(=O)OCC(O)CO[C@@H]1O[C@H](CS(=O)(=O)O)[C@@H](O)[C@H](O)[C@H]1O (stereo not given in full)

inhibition [35]: Active
Kd [2]: 18 µM
Structure (SMILES): CCCCCCCCCCCCCCCCCC(=O)OCC(O)CO[C@H]1O[C@H](CS(=O)(=O)O)[C@@H](O)[C@H](O)[C@H]1O (stereo not given in full)

Activity [36]: inactive
Structure (SMILES): CCCCCCCCCC(=O)OCC(O)CO[C@H]1O[C@H](CS(=O)(=O)O)[C@@H](O)[C@H](O)[C@H]1O (stereo not given in full)
